According to patent publication US20110077198A1, “COMPOSITIONS AND METHODS FOR INHIBITING THE ACTIVATION OF DSRNA-DEPENDENT PROTEIN KINASE AND TUMOR GROWTH INHIBITION” (priority 2007, published 2011):

Experiments:
PKR [1] = target: T1, PKR (Mus musculus, UniProt Q03963); test: Western blot of phospho and total PKR in MAC16 cells; format: cell-based
T1 construct: endogenous in cells; host or cells: MAC16 and MAC13 murine colon adenocarcinoma cells in culture
T1 sequence (Q03963 1-515): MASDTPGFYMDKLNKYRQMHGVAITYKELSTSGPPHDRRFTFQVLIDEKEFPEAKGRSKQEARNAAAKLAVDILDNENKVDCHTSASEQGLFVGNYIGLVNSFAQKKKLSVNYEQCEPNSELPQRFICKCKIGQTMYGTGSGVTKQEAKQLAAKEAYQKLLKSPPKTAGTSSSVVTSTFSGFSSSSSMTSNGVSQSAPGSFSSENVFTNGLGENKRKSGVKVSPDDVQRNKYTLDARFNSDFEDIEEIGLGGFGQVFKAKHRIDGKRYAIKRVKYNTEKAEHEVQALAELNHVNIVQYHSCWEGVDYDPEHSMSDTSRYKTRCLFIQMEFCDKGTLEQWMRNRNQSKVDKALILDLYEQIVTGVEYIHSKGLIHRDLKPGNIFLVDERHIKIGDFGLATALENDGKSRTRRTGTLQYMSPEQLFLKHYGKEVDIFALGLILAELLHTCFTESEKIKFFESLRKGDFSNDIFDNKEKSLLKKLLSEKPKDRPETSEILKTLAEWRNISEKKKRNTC
Description: (§1) Samples (approximately 10 mg) of tumor were homogenised in 500 μl of PhosphoSafe™ Extraction Reagent and centrifuged at 15,000 g for 15 min at 4° C. Portions of cytosolic protein (10 μg) were resolved on 10% sodium dodecyl sulphate/polyacrylamide gels (SDS/PAGE; 6% for eIF2α). The resolved proteins were transferred onto 0.45 μm nitrocellulose membranes, which had been blocked with 5% Marvel in Tris-buffered saline, pH 7.5, at 4° C. overnight. Membranes were then washed for 15 min in 0.5% Tween-buffered saline, or TBS-Tween, prior to the addition of primary antibodies. The primary antibodies were used at a dilution of 1:1000, except for phospho eIF2α, which was used at 1:500. The primary antibodies were washed off the membranes for 15 min, with buffer changes every 5 min, using 0.1% TBS-Tween. The secondary antibodies were used at a dilution of 1:1000, and were washed off after 45 min. Development was by ECL, and films were developed for 3-6 min. Blots were scanned by a densitometer to quantify differences.

MAC16 tumor = conditions: cited from earlier work; for tumor growth in mice bearing the MAC16 tumor: literature reports; for loss of body weight of mice bearing MAC-16 tumor: Eley et al., Biochem J. 2007
NF-κB = test: EMSA of nuclear NF-κB in MAC16 tumor from treated mice; format: in vivo, mouse; conditions: mice bearing MAC16 tumor, 5 mg/kg for 4 days (FIG. 7B)
Source text: (§2) Both the MAC16 and MAC13 tumors were passaged in vivo in NMRI mice by transplanting fragments subcutaneously (s.c.) into the flank, as described in Bibby et al., J. Natl. Cancer Inst., 78(3):539-546, 1987. To maintain cachexia, the MAC16 tumor for passage was selected from donor animals with established weight loss, and treatment was initiated when the average weight loss was 5%. Animals were randomized into groups of six to receive solvent (DMSO (dimethylsulfoxide): PBS (phosphate-buffered saline); 1:20) or the PKR inhibitor at 1 and 5 mg/kg administered daily by s.c. injection. Animals were terminated by cervical dislocation when the body weight loss reached 20%. All animal experiments followed a strict protocol approved by the British Home Office, and the ethical guidelines that were followed meet the standards required by the UKCCR guidelines (Workman, P. et al., Br. J. Cancer, 77:1-10, 1998).
DNA-binding proteins were isolated from tumor samples by hypotonic lysis, followed by high salt extraction of nuclei according to the method of Andrews and Faller (Nucleic Acids Res., 19(9):2499, 1991). EMSA was carried out using a Panomics EMSA “gel shift” kit, according to the manufacturer's instructions

MAC16 cells = test: Cell growth assay, MAC16 cells in vitro; format: cell-based, mouse
20S proteasome = test: Western blot of 20S proteasome α-subunits in MAC16 cells; format: cell-based, mouse; conditions: MAC16 cells (FIG. 5C)
Description: as §1

eIF2α = test: Western blot of phospho and total eIF2α in MAC16 tumor from treated mice; format: in vivo, mouse; conditions: mice bearing MAC16 tumor
Source text: as §2
(§3) Samples (approximately 10 mg) of tumor were homogenised in 500 μl of PhosphoSafe™ Extraction Reagent and centrifuged at 15,000 g for 15 min at 4° C. Portions of cytosolic protein (10 μg) were resolved on 10% sodium dodecyl sulphate/polyacrylamide gels (SDS/PAGE; 6% for eIF2α). […] Blots were scanned by a densitometer to quantify differences.

PKR [2] = target: T1, PKR; test: Western blot of phospho and total PKR in MAC16 tumor from treated mice; format: in vivo; conditions: mice bearing MAC16 tumor
Source text: as §2, §3

MAC13 cells = test: Cell growth assay, MAC13 cells in vitro; format: cell-based, mouse; conditions: concentration up to 1000 nM (FIG. 2)
Description: The MAC16 and MAC13 tumors were propagated in vitro in RPMI 1640 medium containing 10% FCS at 37° C., under an atmosphere of 5% CO2 in air. For cell growth assays, cells were seeded at either 0.5×10^5 cells per well (MAC13) or 1×10^5 cells per well (MAC16) in 24 well multi-well dishes and allowed to accumulate for 24 h prior to drug addition. Cell number was determined three days later, whilst the cells were in exponential growth.

[3] = Toxicity in mice treated with the PKR inhibitor; format: in vivo, mouse; conditions: inhibition of autophosphorylation of PKR in mice
Source text: as §2

PKR [4] = target: T1, PKR; test: Western blot of phospho and total PKR in MAC13 cells; format: cell-based
Description: as §1

[5] = test system: human pancreatic cancer cells; conditions: in vitro, literature reports; cited from earlier work

In the case of `O=C1Nc2ccc3ncsc3c2/C1=C/c1c[nH]cn1` [PKR inhibitor, 8-[1-(1H-imidazol-4-yl)meth-(Z)-ylidene]-6,8-dihydro-thiazol[5,4-e]indol-7-one], the “effect on total PKR in the cell” value (PKR [1]; MAC16 cells) is given as “In neither cell line was there an effect”, the “concentration maximally effective in inhibiting PKR” value (PKR [1]; increasing concentrations have a reduced inhibitory effect) is given as 200 nM and the “muscle atrophy in mice bearing the MAC16 tumor” value (MAC16 tumor; Eley et al, 2007) is given as “attenuated”. The “tumor growth in mice bearing the MAC16 tumor” value (MAC16 tumor) was “inhibited”, the “constitutive activation of NF-κB in the tumor” value (NF-κB) was “attenuated” and the “concentration of maximum inhibition of cell growth” value (MAC16 cells; MAC16 in vitro, cell number after three days, higher concentrations less effective (FIG. 2)) was 200 nM. The “effect on 5FU-induced inhibition of growth of MAC16 cells” value (MAC16 cells; PKR inhibitor at 100 or 200 nM combined with 5FU 1-10 μM (FIG. 8)) was “significantly potentiated”, the “effect on gemcitabine-induced inhibition of growth of MAC16 cells” value (MAC16 cells; PKR inhibitor at 100 or 200 nM combined with gemcitabine (FIG. 8)) was “potentiated” and the “expression of the 20S proteasome” value (20S proteasome) was “attenuated”. The “total level of eIF2α in MAC16 tumor” value (eIF2α; 1 or 5 mg/kg daily s.c.) was “without an effect”, the “increased phosphorylation of eIF2α in MAC16 tumor” value (eIF2α; 1 or 5 mg/kg daily s.c. (FIG. 4B)) was “complete attenuation” and the “total level of PKR in MAC16 tumor” value (PKR [2]; 1 or 5 mg/kg daily s.c.) was “without an effect”. For the same compound, the “increased phosphorylation of PKR in MAC16 tumor” value (PKR [2]; 1 or 5 mg/kg daily s.c. (FIG. 4A)) was “complete attenuation”, the “effect on growth of the MAC13 tumor in vitro” value (MAC13 cells) was “no effect” and the toxicity in mice [3] was “did not produce toxicity”. For the same compound, the “effect on total PKR in the cell” value (PKR [4]) was “In neither cell line was there an effect” and the “effect on autophosphorylation of PKR” value (PKR [4]; low levels of autophosphorylation (FIG. 5B)) was “no effect”.
For `CC(C)C[C@H](N)C(=O)O` [leucine], the “loss of body weight of mice bearing MAC-16 tumor” value (MAC16 tumor) is given as “significantly suppress”.
In the case of `CC(C)C[C@H](NC(=O)[C@H](Cc1ccccc1)NC(=O)c1cnccn1)B(O)O` [PS-341], the “growth / proliferation of human pancreatic cancer cells” value [5] is listed as “block proliferation”.
For `CC(C)[C@H](N)C(=O)O` [valine], the “loss of body weight of mice bearing MAC-16 tumor” value (MAC16 tumor) is listed as “significantly suppress”.
In the case of `O=c1[nH]cc(F)c(=O)[nH]1` [5FU, 5-fluorouracil], the “growth of MAC16 cells, agent alone” value (MAC16 cells; 5FU alone at concentrations between 1 and 10 μM (FIG. 8)) is reported as “significant inhibition”.
For `Oc1ccc(C=Cc2cc(O)cc(O)c2)cc1` [resveratrol], the “tumor growth in mice bearing the MAC16 tumor” value (MAC16 tumor) is given as “inhibited”.
In the case of `Nc1ccn([C@@H]2O[C@H](CO)[C@@H](O)C2(F)F)c(=O)n1` [gemcitabine, Gemcitabine], the “growth of MAC16 cells, agent alone” value (MAC16 cells; gemcitabine alone, 3.8-38 μM (FIG. 8)) is reported as “inhibition of growth”.
For `COc1cc(/C=C/C(=O)CC(=O)/C=C/c2ccc(O)c(OC)c2)ccc1O` [curcumin], the “growth / proliferation of human pancreatic cancer cells” value [5] is given as “inhibits”.
